In patent publication US8754119B2, “Use of rotigotine for the treatment of depression” (priority 2003, dated 2014):
“Also recorded” adds a separate entry of the source.

Key:
[1] = tested on: a2 receptors; assay: binding to a2 receptors
[2] = molecular target: T1, 5HT1A receptor (Homo sapiens, UniProt P08908); assay: binding to 5HT1A receptor
T1 sequence (P08908 1-422): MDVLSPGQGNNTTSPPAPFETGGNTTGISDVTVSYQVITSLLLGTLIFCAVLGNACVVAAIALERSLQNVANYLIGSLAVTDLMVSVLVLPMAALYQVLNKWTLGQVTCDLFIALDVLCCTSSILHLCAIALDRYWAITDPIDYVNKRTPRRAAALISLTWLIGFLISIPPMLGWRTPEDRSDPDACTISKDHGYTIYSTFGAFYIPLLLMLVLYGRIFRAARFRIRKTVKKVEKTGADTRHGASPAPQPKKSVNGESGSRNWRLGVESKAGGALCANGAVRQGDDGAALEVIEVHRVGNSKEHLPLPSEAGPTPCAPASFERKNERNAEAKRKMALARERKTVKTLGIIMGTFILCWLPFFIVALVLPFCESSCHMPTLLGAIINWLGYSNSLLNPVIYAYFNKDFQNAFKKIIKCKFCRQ

[3] = tested on: a2 receptors; assay: functional action on a2 receptors; assay type: biochemical
[4] = tested on: Sprague-Dawley rats; assay: bulbectomy study (olfactory bulb removed, locomotor activity); assay type: in vivo
Procedure: In a further animal model (Embodiment 3) an investigation was made as to whether the antidepressive effects of rotigotine can be distinguished from a general motor stimulation. In this case, rotigotine was administered to rats, whose olfactory bulb had been removed on both sides. The removal of the olfactory bulb leads in the untreated control group to an adaptive hyperactivity. It is known from the literature that chronically administered antidepressants lead to a reduction in movement activity of the animals in this model, while stimulants further increase the motor activity (van Riezen H et al., Br. J. Pharmacol. 60(4), 1977, 521; Kelly J P et al., Pharmacol. Ther. 74(3), 1997, 299). Therefore, it is possible to discriminate between antidepressive and non-specific stimulatory effects of an active ingredient with this model. […] The bulbectomy study was carried out on Sprague-Dawley rats. A group, which had seemingly been operated on, served as a control group and was operated on without the olfactory bulb being removed. 14 days after the operation, the rats were treated with excipients, rotigotine depot suspension (every second day) or imipramine. On test days, the rats were taken onto a test field and left to themselves for 3 minutes. The locomotor activities of the animals were measured here with the aid of the number of lines crossed.

[5] = tested on: rats; assay: forced swim test; assay type: in vivo; details: subcutaneously applied
Excerpt: The “forced swim test” is an animal model, in which depressive episodes are triggered by acute stress. In this case, rats are forced to swim in a limited space. After initial attempts to save themselves, in which the animals grasp the hopelessness, they lapse into immobility. On repetition of the experiment, the animals remain immobile from the beginning of the experiment. In the event of pre-treatment with antidepressants, the period of immobility is shortened during the repetition experiment; the animals generally start searching and escape movements directly after transfer into the water basin (Porsolt, Biomedicine 30, 1979, 139).

[6] = molecular target: T1, 5HT1A receptor; assay: functional activity on 5HT1A receptors; assay type: biochemical

## CCCN(CCc1cccs1)C1CCc2c(O)cccc2C1 (single isomer, unassigned; (-)) [rotigotine, (−)-5,6,7,8-tetrahydro-6-[propyl[2-(2-thienyl)ethyl]amino]-1-naphthol]
[1]
  binding to a2 receptors: binds
[2]
  binding to the 5HT1A receptor: binds
[3]
  mode of action on a2 receptors: acts antagonistically
[4]; bulbectomised rats, low doses
  bulbectomy-induced locomotor hyperactivity: virtually complete suppression of the bulbectomy-induced locomotor hyperactivity; also recorded: significantly reduces the motor hyperactivity
[4]; higher doses, bulbectomised and control animals
  locomotor activity: stimulatory dopamine-agonistic effect predominates; also recorded: non-specific activation of the locomotor activity dominates
[5]
  period of immobility: clear reduction in the immobility period
[5]; listed as Rotigotine
  period of immobility: significantly shortened period of immobility
[6]
  mode of action on 5HT1A receptors: agonistic activity
